Consider one compound from publication PMC5125864 (Molecular and biochemical parasitology, 2016).

The experiment has as its target T1, ehRad51 (Entamoeba histolytica, UniProt C4M4K4).
T1 sequence (C4M4K4 1-366): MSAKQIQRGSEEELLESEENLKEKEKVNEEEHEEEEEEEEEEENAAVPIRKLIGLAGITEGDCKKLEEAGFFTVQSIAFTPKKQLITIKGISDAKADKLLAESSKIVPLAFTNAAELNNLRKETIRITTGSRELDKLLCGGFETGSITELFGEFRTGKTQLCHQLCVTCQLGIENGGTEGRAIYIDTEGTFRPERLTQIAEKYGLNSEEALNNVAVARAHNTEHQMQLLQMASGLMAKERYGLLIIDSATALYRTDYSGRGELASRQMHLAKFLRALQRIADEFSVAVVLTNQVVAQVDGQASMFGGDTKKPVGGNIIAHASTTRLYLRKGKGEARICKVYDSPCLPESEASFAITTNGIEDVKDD
Description: oligonucleotide DNA strand exchange. In kind it is biochemical.

Broadly, the IC50 is the concentration that inhibits the measured activity by half. A lower IC50 goes with greater potency. As to `O=S(=O)(O)c1cc(N=C=S)ccc1C=Cc1ccc(N=C=S)cc1S(=O)(=O)O` [DIDS, 4,4′-diisothiocyanostilbene-2,2′-disulfonic acid], half-maximal inhibition (IC50) required 18.5 µM.
